Laboratory results: US20060160197A1 (priority 2004, published 2006)

Tests used:
Assay type in all cases: physicochemical
Conditions in all cases: pH 2 to 3
[1] = Example 2 reactive solvent extraction, 70% Alamine 336/10% MIBK/20% kerosene, 50° C.
Procedure: (§1) A variety of analytical methods can be employed to analyze the reactants and products produced using the present methods include HPLC, GC, ion selective electrodes, MS, NMR, etc. HPLC was used to measure glycolic acid and various related products. Briefly, samples are diluted with water (as needed to be within HPLC detection range) and mixed 1:1 with 0.2 M n-propanol in water (HPLC internal standard). HPLC Analytical Method: (BioRad HPX 87H ion exclusion column (BioRad, Hercules, Calif.), 300 mm×7.8 mm; 0.01 N H2SO4 mobile phase; 1.0 mL/min flow at 50° C.; 10 μL injection volume; RI detector and UV 210 nm, 20 min analysis time). HPLC Equipment: (Waters 2695 ‘Alliance’ Separations Module, 2410 Refractive Index Detector, 2487 Dual λ Absorbance Detector and Empower Pro Software (Waters Corp, Milford, Mass.).
Solvent Extraction Using Approximately 70% C8-C10 Trialkylamine in Combination with 10% Methyl Isobutyl Ketone and 20% Kerosene at 50° C.
(§2) Into a 4-mL glass reactor equipped with magnetic stir bar was placed 1 mL of a mixed solvent containing 70% (volume/volume) Alamine® 336 (Cognis), 10% (volume/volume) methyl isobutyl ketone (MIBK) and 20% (volume/volume) kerosene. The pH of an aqueous solution of ammonium glycolate (5 wt % to 40 wt %) was adjusted to pH 2 to 3 with concentrated sulfuric acid, then 1 mL of the resulting aqueous solution was added to the reactor. The resulting mixture was stirred for 30 minutes at 50° C.

[2] = Example 4 reactive solvent extraction, 90% Alamine 336/10% MIBK, 25° C.
Procedure: as §1
Solvent Extraction Using Approximately 90% C8-C10 Trialkylamine in Combination with 10% Methyl Isobutyl Ketone at 25° C.
as §2, with “90%” for “70%”, “(Cognis) and” for “(Cognis),”, “(MIBK).” for “(MIBK) and 20% (volume/volume) kerosene.”, “25°” for “50°”

[3] = Example 5 reactive solvent extraction, 90% Alamine 336/10% MIBK, 75° C.
Procedure: as §1
Solvent Extraction Using Approximately 90% C8-C10 Trialkylamine in Combination with 10% Methyl Isobutyl Ketone at 75° C.
as §2, with “90%” for “70%”, “(Cognis) and” for “(Cognis),”, “(MIBK).” for “(MIBK) and 20% (volume/volume) kerosene.”, “75°” for “50°”

[4] = Example 7 reactive solvent extraction, 50% Alamine 336/10% MIBK/40% kerosene, 75° C.
Procedure: as §1
Solvent Extraction Using Approximately 50% C8-C10 Trialkylamine in Combination with 10% Methyl Isobutyl Ketone and 40% Kerosene at 75° C.
as §2, with “50%” for “70%”, “40%” for “20%”, “75°” for “50°”

[5] = Example 11 reactive solvent extraction, 70% Alamine 336/30% 1-octanol, 75° C.
Procedure: as §1
Solvent Extraction Using Approximately 70% C8-C10 Trialkylamine in Combination with 30% 1-Octanol at 75° C.
as §2, with “30%” for “10%”, “1-octanol.” for “methyl isobutyl ketone (MIBK) and 20% (volume/volume) kerosene.”, “75°” for “50°”

[6] = initial 3.6 wt % glycolic acid in aqueous phase
[7] = initial 8.5 wt % glycolic acid in aqueous phase
[8] = initial 12.1 wt % glycolic acid in aqueous phase
[9] = initial 16.1 wt % glycolic acid in aqueous phase
[10] = initial 20.6 wt % glycolic acid in aqueous phase
[11] = initial 25.1 wt % glycolic acid in aqueous phase
[12] = initial 29.1 wt % glycolic acid in aqueous phase
[13] = initial 32.8 wt % glycolic acid in aqueous phase

Question: Which “Partition coefficient (wt % org./wt % aq.)” value [1, 6] does the source give for `O=C(O)CO` [glycolic acid] here?
Answer: 0.32

Question: What about the “Partition coefficient (wt % org./wt % aq.)” value [1, 7] of the same compound?
Answer: 0.66

Question: What about the “Partition coefficient (wt % org./wt % aq.)” value [1, 8] of the same compound?
Answer: 0.63

Question: What about the “Partition coefficient (wt % org./wt % aq.)” value [1, 9] of the same compound?
Answer: 0.74

Question: And the “Partition coefficient (wt % org./wt % aq.)” value [1, 10]?
Answer: 0.69

Question: What about the “Partition coefficient (wt % org./wt % aq.)” value [1, 11] of the same compound?
Answer: 0.83

Question: And the “Partition coefficient (wt % org./wt % aq.)” value [1, 12]?
Answer: 0.68

Question: And the “Partition coefficient (wt % org./wt % aq.)” value [1, 13]?
Answer: 0.61

Question: And the “Partition coefficient (wt % org./wt % aq.)” value [2, 6]?
Answer: 1.98

Question: And the “Partition coefficient (wt % org./wt % aq.)” value [2, 7]?
Answer: 1.57

Question: What about the “Partition coefficient (wt % org./wt % aq.)” value [2, 8] of the same compound?
Answer: 1.38

Question: What about the “Partition coefficient (wt % org./wt % aq.)” value [2, 9] of the same compound?
Answer: 1.44

Question: What about the “Partition coefficient (wt % org./wt % aq.)” value [2, 10] of the same compound?
Answer: 1.13

Question: What about the “Partition coefficient (wt % org./wt % aq.)” value [2, 11] of the same compound?
Answer: 1.19

Question: And the “Partition coefficient (wt % org./wt % aq.)” value [2, 12]?
Answer: 1.14

Question: And the “Partition coefficient (wt % org./wt % aq.)” value [2, 13]?
Answer: 0.92

Question: And the “Partition coefficient (wt % org./wt % aq.)” value [3, 6]?
Answer: 0.75

Question: And the “Partition coefficient (wt % org./wt % aq.)” value [3, 7]?
Answer: 0.70

Question: What about the “Partition coefficient (wt % org./wt % aq.)” value [3, 8] of the same compound?
Answer: 0.76

Question: And the “Partition coefficient (wt % org./wt % aq.)” value [3, 9]?
Answer: 0.73

Question: What about the “Partition coefficient (wt % org./wt % aq.)” value [3, 10] of the same compound?
Answer: 0.79

Question: And the “Partition coefficient (wt % org./wt % aq.)” value [3, 11]?
Answer: 0.87

Question: What about the “Partition coefficient (wt % org./wt % aq.)” value [3, 12] of the same compound?
Answer: 0.84

Question: And the “Partition coefficient (wt % org./wt % aq.)” value [3, 13]?
Answer: 0.86

Question: And the “Partition coefficient (wt % org./wt % aq.)” value [4, 6]?
Answer: 0.38

Question: What about the “Partition coefficient (wt % org./wt % aq.)” value [4, 7] of the same compound?
Answer: 0.32

Question: What about the “Partition coefficient (wt % org./wt % aq.)” value [4, 8] of the same compound?
Answer: 0.35

Question: What about the “Partition coefficient (wt % org./wt % aq.)” value [4, 9] of the same compound?
Answer: 0.28

Question: What about the “Partition coefficient (wt % org./wt % aq.)” value [4, 10] of the same compound?
Answer: 0.33

Question: And the “Partition coefficient (wt % org./wt % aq.)” value [4, 11]?
Answer: 0.35

Question: And the “Partition coefficient (wt % org./wt % aq.)” value [4, 12]?
Answer: 0.35

Question: What about the “Partition coefficient (wt % org./wt % aq.)” value [4, 13] of the same compound?
Answer: 0.35

Question: And the “Partition coefficient (wt % org./wt % aq.)” value [5, 6]?
Answer: 0.69

Question: And the “Partition coefficient (wt % org./wt % aq.)” value [5, 7]?
Answer: 0.74

Question: And the “Partition coefficient (wt % org./wt % aq.)” value [5, 8]?
Answer: 0.64

Question: What about the “Partition coefficient (wt % org./wt % aq.)” value [5, 9] of the same compound?
Answer: 0.68

Question: What about the “Partition coefficient (wt % org./wt % aq.)” value [5, 10] of the same compound?
Answer: 0.62

Question: What about the “Partition coefficient (wt % org./wt % aq.)” value [5, 11] of the same compound?
Answer: 0.61

Question: And the “Partition coefficient (wt % org./wt % aq.)” value [5, 12]?
Answer: 0.50

Question: And the “Partition coefficient (wt % org./wt % aq.)” value [5, 13]?
Answer: 0.52
